Numbers after ± are expanded uncertainties.
Assay: mn = molality of the nth substance listed, in mol/kg
Settings: Liquid, Vibrating tube method

[Ca+2].[Cl-].[Cl-] [calcium chloride] + CCO
Settings	mass density [kg/m3]
373.15 K, 30290 kPa, m1 = 0.09327	758.06 ± 0.49
373.15 K, 30410 kPa, m1 = 0.1743	764.51 ± 0.48
373.15 K, 35070 kPa, m1 = 1.266	842.89 ± 0.44
373.15 K, 35370 kPa, m1 = 0.4379	787.22 ± 0.49
373.15 K, 35420 kPa, m1 = 0.09327	762.76 ± 0.52
373.15 K, 35480 kPa, m1 = 1.55	862.67 ± 0.43
373.15 K, 35840 kPa, m1 = 0.6899	804.85 ± 0.48
373.15 K, 35870 kPa, m1 = 0.1743	768.88 ± 0.51
373.15 K, 35870 kPa, m1 = 0.9896	825.32 ± 0.46
373.15 K, 39260 kPa, m1 = 0.4379	790.31 ± 0.51
373.15 K, 39740 kPa, m1 = 0.1743	771.57 ± 0.54
373.15 K, 39910 kPa, m1 = 0.09327	766.53 ± 0.54
373.15 K, 39940 kPa, m1 = 0.6899	807.94 ± 0.5
373.15 K, 39960 kPa, m1 = 0.9896	828.19 ± 0.48
373.15 K, 39970 kPa, m1 = 1.266	846.74 ± 0.46
373.15 K, 39970 kPa, m1 = 1.55	865.39 ± 0.44
398.15 K, 620 kPa, m1 = 1.266	780.71 ± 0.34
398.15 K, 680 kPa, m1 = 0.09327	692.59 ± 0.33
398.15 K, 740 kPa, m1 = 1.55	801.26 ± 0.35
398.15 K, 950 kPa, m1 = 0.4379	719.54 ± 0.33
398.15 K, 970 kPa, m1 = 0.6899	737.62 ± 0.33
398.15 K, 1030 kPa, m1 = 0.1743	700.75 ± 0.33
398.15 K, 1060 kPa, m1 = 0.9896	760.33 ± 0.34
398.15 K, 5070 kPa, m1 = 0.1743	707.51 ± 0.35
398.15 K, 5070 kPa, m1 = 0.9896	766.76 ± 0.35
398.15 K, 5100 kPa, m1 = 0.09327	700.41 ± 0.35
398.15 K, 5160 kPa, m1 = 0.6899	744.53 ± 0.35
398.15 K, 5180 kPa, m1 = 1.266	786.93 ± 0.36
398.15 K, 5380 kPa, m1 = 0.4379	726.88 ± 0.35
398.15 K, 5470 kPa, m1 = 1.55	808.33 ± 0.36
398.15 K, 10020 kPa, m1 = 0.6899	752.01 ± 0.37
398.15 K, 10060 kPa, m1 = 1.266	793.27 ± 0.37
398.15 K, 10080 kPa, m1 = 0.09327	708.63 ± 0.38
398.15 K, 10290 kPa, m1 = 0.4379	734.49 ± 0.38
398.15 K, 10460 kPa, m1 = 1.55	815.02 ± 0.37
398.15 K, 10540 kPa, m1 = 0.1743	716.08 ± 0.38
398.15 K, 10540 kPa, m1 = 0.9896	774.89 ± 0.37
398.15 K, 15240 kPa, m1 = 0.6899	759.43 ± 0.4
398.15 K, 15290 kPa, m1 = 0.1743	722.99 ± 0.41
398.15 K, 15290 kPa, m1 = 0.9896	781.35 ± 0.39
398.15 K, 15410 kPa, m1 = 0.09327	716.75 ± 0.41
398.15 K, 15610 kPa, m1 = 0.4379	742.12 ± 0.41
398.15 K, 15620 kPa, m1 = 1.266	800.09 ± 0.39
398.15 K, 15620 kPa, m1 = 1.55	821.29 ± 0.39
398.15 K, 20030 kPa, m1 = 0.09327	723.21 ± 0.44
398.15 K, 20080 kPa, m1 = 1.266	805.26 ± 0.41
398.15 K, 20140 kPa, m1 = 0.1743	729.54 ± 0.44
398.15 K, 20140 kPa, m1 = 1.55	826.33 ± 0.4
398.15 K, 20410 kPa, m1 = 0.9896	787.68 ± 0.42
398.15 K, 20480 kPa, m1 = 0.4379	748.53 ± 0.43
398.15 K, 20620 kPa, m1 = 0.6899	766.4 ± 0.43
398.15 K, 24980 kPa, m1 = 0.1743	735.56 ± 0.47
398.15 K, 25060 kPa, m1 = 0.09327	729.63 ± 0.48
398.15 K, 25080 kPa, m1 = 0.9896	792.89 ± 0.44
398.15 K, 25340 kPa, m1 = 0.4379	754.4 ± 0.46
398.15 K, 25340 kPa, m1 = 1.55	831.69 ± 0.42
398.15 K, 25640 kPa, m1 = 1.266	811.31 ± 0.43
398.15 K, 25890 kPa, m1 = 0.6899	772.57 ± 0.45
398.15 K, 30030 kPa, m1 = 1.266	815.79 ± 0.44
398.15 K, 30060 kPa, m1 = 0.4379	759.57 ± 0.49
398.15 K, 30140 kPa, m1 = 0.6899	777.06 ± 0.47
398.15 K, 30170 kPa, m1 = 0.09327	735.52 ± 0.51
398.15 K, 30470 kPa, m1 = 1.55	836.6 ± 0.43
398.15 K, 30740 kPa, m1 = 0.9896	798.47 ± 0.46
398.15 K, 30780 kPa, m1 = 0.1743	742.1 ± 0.51
398.15 K, 35180 kPa, m1 = 0.09327	740.65 ± 0.54
398.15 K, 35180 kPa, m1 = 0.4379	764.61 ± 0.51
398.15 K, 35460 kPa, m1 = 0.1743	746.84 ± 0.54
398.15 K, 35740 kPa, m1 = 1.266	821.22 ± 0.47
398.15 K, 35830 kPa, m1 = 1.55	841.39 ± 0.45
398.15 K, 35940 kPa, m1 = 0.6899	782.51 ± 0.5
398.15 K, 35970 kPa, m1 = 0.9896	802.93 ± 0.48
398.15 K, 39290 kPa, m1 = 0.6899	785.29 ± 0.52
398.15 K, 39380 kPa, m1 = 0.4379	768.3 ± 0.54
398.15 K, 39760 kPa, m1 = 1.55	844.7 ± 0.46
398.15 K, 39790 kPa, m1 = 0.1743	750.79 ± 0.56
398.15 K, 39860 kPa, m1 = 0.9896	805.8 ± 0.5
398.15 K, 39920 kPa, m1 = 0.09327	744.93 ± 0.57
398.15 K, 39920 kPa, m1 = 1.266	824.91 ± 0.48
